Where “and” joins values, the source holds several entries; their conditions need not be identical. Equal values may be shown once.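 Results reflect a 48-hour exposure of cells in 96-well plates to compound at five concentrations. TGI: total growth inhibition.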
How the values were obtained:
Experiment in all cases: DTP human tumour cell line panel, 48 h
[1] = tested on: UACC-62 melanoma
[2] = tested on: IGROV1 ovarian
[3] = tested on: HCT-116 colon
[4] = tested on: KM12 colon
[5] = tested on: PC-3 prostate
[6] = tested on: CAKI-1 renal
[7] = tested on: SK-MEL-28 melanoma
[8] = tested on: TK-10 renal
[9] = tested on: SNB-19 CNS
[10] = tested on: OVCAR-8 ovarian
[11] = tested on: NCI-H23 lung
[12] = tested on: T-47D breast
[13] = tested on: SK-OV-3 ovarian

| Structure (SMILES) | TGI [1] | TGI [2] | TGI [3] | TGI [4] | TGI [5] | TGI [6] | TGI [7] | TGI [8] | TGI [9] | TGI [10] | TGI [11] | TGI [12] | TGI [13] |
| --- | --- | --- | --- | --- | --- | --- | --- | --- | --- | --- | --- | --- | --- |
| Nc1ncnn2c(C3OC(CO)C(O)C3O)ccc12 (stereo not given) | 0.358 µM | 0.562 µM | 0.151 µM | 0.677 µM | 0.762 µM | 0.486 µM | 0.592 µM | 0.682 µM | 25.4 µM | 0.746 µM | 0.474 µM | 6.93 µM | – |
| Cc1nc2ccccc2n1COC(Cn1ccnc1)c1ccc(Cl)cc1Cl (stereo not given) | > 100 µM | > 100 µM | > 100 µM | > 100 µM | > 100 µM | 39 µM | > 100 µM | > 100 µM | > 100 µM | > 100 µM | > 100 µM | > 100 µM | – |
| COc1ccc(-c2c(C#N)c(N)n(C3OCC(OC(C)=O)C(OC(C)=O)C3OC(C)=O)c(=S)c2C#N)cc1 (stereo not given) | > 100 µM | > 100 µM | > 100 µM | > 100 µM | > 100 µM | > 100 µM | > 100 µM | – | > 100 µM | > 100 µM | > 100 µM | 81.6 µM and > 100 µM | 85.2 µM and > 100 µM |
| O=c1[nH]c2cc(Cl)ccc2nc1/C(=N\O)C(O)c1cccc([N+](=O)[O-])c1 (stereo not given) | > 100 µM | > 100 µM | > 100 µM | > 100 µM | – | – | > 100 µM | > 100 µM | > 100 µM | > 100 µM | > 100 µM | – | > 100 µM |
| O=C1/C(=C/c2cccc(F)c2)CCCc2ccccc21 | 28.6 µM | 24.6 µM | 29 µM | 24.4 µM | 29.1 µM | 31.6 µM | 30.2 µM | 29.1 µM | 29.4 µM | 29.3 µM | 42.6 µM | – | 68.2 µM |
| Cc1csc2[n+]1C(=O)/C(=C\c1ccc([N+](=O)[O-])cc1)S2 | 41 µM | – | 38.7 µM | 82.1 µM | 75.5 µM | 56.4 µM | > 100 µM | 58.8 µM | 87.3 µM | > 100 µM | 48.6 µM | 65.5 µM | 85.1 µM |
| CC(=O)OCC1=C(CCC#N)N2C(=O)C(NC(=O)Cc3cccs3)C2S(=O)C1 (stereo not given) | > 100 µM | > 100 µM | > 100 µM | > 100 µM | – | > 100 µM | > 100 µM | > 100 µM | > 100 µM | > 100 µM | > 100 µM | – | > 100 µM |
| O=C(c1cccs1)N(C(=S)N1CCN(c2ccccn2)CC1)c1ccccc1 | > 100 µM | > 100 µM | > 100 µM | > 100 µM | – | > 100 µM | > 100 µM | > 100 µM | > 100 µM | > 100 µM | > 100 µM | – | > 100 µM |
| CC(=O)OC1COC(n2c(O)c(N=NC(N)=S)c3cc(Br)ccc32)C(OC(C)=O)C1OC(C)=O (stereo not given) | > 100 µM | > 100 µM | > 100 µM | > 100 µM | – | > 100 µM | > 100 µM | > 100 µM | > 100 µM | > 100 µM | > 100 µM | – | > 100 µM |
| NC(=O)N/N=C(\CC1OC(=O)c2ccccc21)c1ccco1 (stereo not given) | > 100 µM | > 100 µM | > 100 µM | > 100 µM | – | > 100 µM | > 100 µM | > 100 µM | > 100 µM | – | > 100 µM | – | > 100 µM |
| CC(C)OC(=O)c1ccc(NCc2cc(O)ccc2O)cc1Cl | 18.6 µM | 14.7 µM | 52.5 µM | > 38.1 µM | 12.5 µM | 3.02 µM | 38.6 µM | 20.2 µM | > 22.2 µM | > 70.1 µM | 28.6 µM | – | 49.2 µM |
| Cc1ccc(S(=O)(=O)n2cc(-c3cc(C(F)(F)F)ccn3)c3cc(Br)ccc32)cc1 | 33.3 µM | – | 53 µM | > 100 µM | 41.7 µM | 38.6 µM | 62.6 µM | 44.8 µM | 37.5 µM | – | 31.1 µM | 18.9 µM | 35.1 µM |
| C=CCNC1=C2C[C@@H](C)C[C@@H](OC)[C@H](OC(=O)CCN)[C@H](C)/C=C(\C)[C@@H](OC(N)=O)[C@H](OC)/C=C\C=C(/C)C(=O)NC(=CC1=O)C2=O | 12.3 µM | 19.6 µM | 13.6 µM | 11.2 µM | – | 25.6 µM | 44.2 µM | 10.5 µM | 20.9 µM | 18.4 µM | 13 µM | 15.5 µM | 11 µM |
| Cn1c(=O)c(Br)c(C=O)n(CCO[N+](=O)[O-])c1=O | 4.9 µM | – | 16.1 µM | – | 23.5 µM | – | 4.73 µM | 15.7 µM | 68.4 µM | 7.79 µM | 19.4 µM | 14.6 µM | 38.7 µM |
| COC(=O)C1(C(=O)OC)Cc2ccc(OC)cc2C2=C1C(=O)c1ccccc1C2=O | 4.37 µM | 8.53 µM | 10.9 µM | 23.5 µM | 4.18 µM | 7.72 µM | 31.4 µM | 33.4 µM | 33.4 µM | 9.27 µM | 21.9 µM | 6.9 µM | – |
| O=[N+]([O-])/C(C(Cl)=C(Cl)Cl)=C(\N1CCOCC1)n1nnc2ccccc21 | 46.7 µM | – | > 100 µM | 45.6 µM | 30.8 µM | 31.6 µM | 42.6 µM | 63.8 µM | 33.7 µM | – | 32.7 µM | 56.8 µM | 79.2 µM |
| COC(=O)N/N=C(\Cc1ccccc1)CN(C)C | > 100 µM | > 100 µM | > 100 µM | > 100 µM | – | – | > 100 µM | > 100 µM | – | > 100 µM | > 100 µM | – | > 100 µM |
| CNS(=O)(=O)NN(C)S(=O)(=O)c1ccccc1 | > 100 µM | > 100 µM | > 100 µM | > 100 µM | – | > 100 µM | – | > 100 µM | > 100 µM | > 100 µM | > 100 µM | – | – |
| CCc1n[nH]c(=O)n1/N=C/c1c(O)ccc2ccccc12 | > 100 µM | > 100 µM | > 100 µM | > 100 µM | > 100 µM | – | > 100 µM | > 100 µM | > 100 µM | > 100 µM | > 100 µM | – | > 100 µM |
